The structures appear in SMILES notation. Activity calls are given as the source filed them. The rule behind the calls is not given here.

Data set [1] addresses T1, Mushroom tyrosinase (Agaricus bisporus, UniProt O42713+Q00024+C7FF04+C7FF05). Description: Inhibition of mushroom tyrosinase using L-tyrosine as substrate incubated for 30 mins by absorbance based microplate reader analysis. In kind it is protein assay.
Data set [2] in a line: Antioxidant activity assessed as ABTS radical scavenging activity at 100 uM preincubated under dark condition for 2 mins and measured every 1 min for 10 mins by absorbance based microplate reader analysis relative to control. In kind it is functional. The note with it: time 12.0 min.
The subject of data set [3] is B16-F10. Description: Cytotoxicity against mouse B16-F10 cells assessed as reduction in cell viability at <=20 uM incubated for 72 hrs by EZ-Cytox assay. Format: toxicity, cell-based. The note with it: b16-f10, 72 h.
For data set [4], the target named is T1, Mushroom tyrosinase. Description: Inhibition of mushroom tyrosinase using L-DOPA as substrate incubated for 30 mins by absorbance based microplate reader analysis. In kind it is protein assay.
Data set [5] has as its system B16-F10. Put plainly: Antimelanogenic activity against IBMX/[…] stimulated mouse B16-F10 cells assessed as reduction in intracellular melanin content preincubated for 1 hr followed by IBMX/[…] addition and measured after 72 hrs by microplate reader analysis. In kind it is functional, cell-based. The note with it: dose 5-20 µM, time 73.0 hrs.
For data set [6], the target named is T2, Tyrosinase (Mus musculus) (UniProt P11344).
T2 sequence (whole entry): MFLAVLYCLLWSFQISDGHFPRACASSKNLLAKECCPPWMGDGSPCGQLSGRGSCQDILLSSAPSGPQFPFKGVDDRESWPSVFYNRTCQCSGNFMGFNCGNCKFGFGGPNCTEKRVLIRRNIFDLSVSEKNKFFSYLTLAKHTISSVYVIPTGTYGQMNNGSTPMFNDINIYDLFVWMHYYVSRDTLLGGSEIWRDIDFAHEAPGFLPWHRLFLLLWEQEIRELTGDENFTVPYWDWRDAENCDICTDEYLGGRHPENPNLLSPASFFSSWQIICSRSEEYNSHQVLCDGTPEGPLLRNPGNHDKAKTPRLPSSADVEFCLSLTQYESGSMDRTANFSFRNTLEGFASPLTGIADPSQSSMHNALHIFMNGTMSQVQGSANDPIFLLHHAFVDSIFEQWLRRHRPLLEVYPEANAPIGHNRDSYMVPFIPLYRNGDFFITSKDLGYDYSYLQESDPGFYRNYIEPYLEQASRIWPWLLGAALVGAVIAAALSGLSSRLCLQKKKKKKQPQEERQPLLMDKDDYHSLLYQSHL
Put plainly: Inhibition of tyrosinase activity in IBMX/[…] stimulated mouse B16-F10 cells preincubated for 1 hr followed by IBMX/[…] addition and measured after 72 hrs by microplate reader assay. Format: cell-based. The note with it: dose 5-20 µM, time 73.0 hrs.

For a further data set, the system named is HaCaT. Description: Cytotoxicity against human HaCaT cells assessed as reduction in cell viability at 5 to 20 uM incubated for 24 hrs by EZ-Cytox assay. As to conditions: dose 5-20 µM. In kind it is toxicity, cell-based.
For data set [7], the target named is T3, Mushroom tyrosinase (Agaricus bisporus) (UniProt O42713+Q00024+C7FF04+C7FF05). Put plainly: Inhibition of mushroom tyrosinase using L-DOPA as substrate at 500 nM incubated for 30 mins by absorbance based microplate reader analysis relative to control. Format: protein assay.
Data set [8] concerns the target T3, Mushroom tyrosinase (Agaricus bisporus). Description: Inhibition of mushroom tyrosinase using L-DOPA as substrate at 500 nM incubated for 30 mins in presence of CuSO4 by absorbance based microplate reader analysis relative to control. In kind it is protein assay.
Data set [9] has the same target. Put plainly: Mixed-type inhibition of mushroom tyrosinase using L-DOPA as substrate assessed as decrease in Vmax with increase in Km upto 0.2 uM using varying concentrations of substrate by Lineweaver-Burk plot analysis. In kind it is protein assay.
Data set [10] shares this target. Put plainly: Potency index, ratio of phenylthiourea IC50 to test compound IC50 for inhibition of mushroom tyrosinase. In kind it is protein assay.
Data set [11] deals with T1, Mushroom tyrosinase. Description: Binding affinity to mushroom tyrosinase using L-DOPA as substrate assessed as inhibition constant by Dixon plot analysis. Format: protein assay.
Data set [12] has as its target T3, Mushroom tyrosinase (Agaricus bisporus). Description: Potency index, ratio of kojic acid IC50 to test compound IC50 for inhibition of mushroom tyrosinase using L-DOPA as substrate incubated for 30 mins by absorbance based microplate reader analysis. Format: protein assay.
The target is the same in data set [13]. Put plainly: Competitive inhibition of mushroom tyrosinase using L-DOPA as substrate assessed as increase in Km with constant Vmax upto 0.2 uM using varying concentrations of substrate by Lineweaver-Burk plot analysis. Format: protein assay.
Data set [14] can be described thus: Cytotoxicity against human HaCaT cells assessed as cell viability at 20 uM incubated for 24 hrs by EZ-Cytox assay relative to control. Format: toxicity, cell-based. The note with it: read-out: Activity.
Data set [15] can be described thus: Cytotoxicity against human HaCaT cells assessed as cell viability at 5 uM incubated for 24 hrs by EZ-Cytox assay relative to control. Format: toxicity, cell-based. As to conditions: read-out: Activity.
The nature of data set [16]: Cytotoxicity against human HaCaT cells assessed as cell viability at 10 uM incubated for 24 hrs by EZ-Cytox assay relative to control. In kind it is toxicity, cell-based. As to conditions: read-out: Activity.
Data set [17] concerns the target T3, Mushroom tyrosinase (Agaricus bisporus). Put plainly: Potency index, ratio of phenylthiourea IC50 to test compound IC50 for inhibition of mushroom tyrosinase using L-tyrosine as substrate incubated for 30 mins by absorbance based microplate reader analysis. Format: protein assay.
Data set [18] shares this target. Description: Mixed-type inhibition of mushroom tyrosinase using L-DOPA as substrate assessed as decrease in Vmax with increase in Km upto 1.8 uM using varying concentrations of substrate by Lineweaver-Burk plot analysis. In kind it is protein assay.

Usually IC50 stands for the concentration at which inhibition is half-maximal. A lower IC50 goes with higher potency. For orientation: inhibition means the relative decrease from the control value, in per cent. For `O=[N+]([O-])c1ccc2nc(S)oc2c1`, the IC50 against Mushroom tyrosinase [1] came to 12250 nM; at Mushroom tyrosinase [4], 13760 nM. Further, the Activity in [2] is 49%; in the data set on B16-F10 [3], “Non-Toxic”; in the data set on B16-F10 [5], “Dose-Dependent Effect”; in the data set on HaCaT, “Non-Toxic”. Moreover, the inhibition result in data set [6] is “Dose-Dependent Effect”.
As a reminder, the Ki is a dissociation constant, usually derived from enzyme kinetics or from competition with a known ligand. Take `Cc1ccc2[nH]c(=S)oc2c1`: the values for the inhibition in data set [7], in [8] and in data set [6] were over 92%, 26% and “Dose-Dependent Effect”, respectively. Further, the figures for the IC50 against Mushroom tyrosinase [1] and at Mushroom tyrosinase [4] were 130 nM and 80 nM, respectively. For the same compound, the Activity in data set [2] was 49%; in the data set with B16-F10 [3] it was “Non-Toxic”; with B16-F10 [5] it was “Dose-Dependent Effect”; in the data set on HaCaT, “Non-Toxic”. Also, in [9], the inhibition result is “Active”. In data set [10], the Ratio IC50 was found to be 2. Also, the Ki on Mushroom tyrosinase [11] is recorded as 98 nM.
Take `Sc1nc2ccccc2o1`: the Ratio IC50 in [12] stood at 440. The inhibition in data set [7] is over 92%; in [8], 26%. For the same compound, the inhibition result in [13] was “Active”. Also, the IC50 against Mushroom tyrosinase [1] is 240 nM; against Mushroom tyrosinase [4] it was 80 nM. The Activity in data set [2] was 49%; with B16-F10 [3], “Non-Toxic”; in the data set on HaCaT, “Non-Toxic”. In addition, the Ki on Mushroom tyrosinase [11] is given as 58 nM.
Turning to `O=[N+]([O-])c1cccc2oc(S)nc12`, the viability at 24 h, 20 µM in data set [14] turned out to be 94%. The IC50 against Mushroom tyrosinase [1] came to 14800 nM; against Mushroom tyrosinase [4], 23840 nM. Further, the Activity in data set [2] is 34%; in the data set on B16-F10 [3], “Non-Toxic”.
Regarding `S=c1[nH]c2ccc(Cl)cc2o1`, the IC50 amounted to 2020 nM against Mushroom tyrosinase [1] and 6250 nM against Mushroom tyrosinase [4]. Besides, the Activity is 49% in [2], “Non-Toxic” in the data set with B16-F10 [3] and “Non-Toxic” with HaCaT.
Turning to `O=[N+]([O-])c1ccc2oc(=S)[nH]c2c1`, in data set [14], the viability at 24 h, 20 µM was 84%. Moreover, the IC50 against Mushroom tyrosinase [1] was 2410 nM; against Mushroom tyrosinase [4], 5810 nM. For the same compound, in [15], the viability at 24 h, 5 µM came to 91%. Moreover, the Activity is 49% in [2] and “Non-Toxic” in the data set with B16-F10 [3]. For the same compound, the viability at 24 h, 10 µM in data set [16] amounted to 91%.
Regarding `Cc1c(C)c2c(c(C)c1O)CCC(C)(C(=O)O)O2` (stereo not given), the Activity in data set [2] was determined as 49%.
For the compound `Cc1ccc2oc(=S)[nH]c2c1`, the inhibition in data set [7] was over 92%; in [8], 26%. For the same compound, the figures for the IC50 against Mushroom tyrosinase [1] and against Mushroom tyrosinase [4] were 100 nM and 90 nM, respectively. In addition, the Ratio IC50 in data set [17] worked out at 3. Moreover, the Activity in [2] is 49%; in the data set on B16-F10 [3], “Non-Toxic”; in the data set with HaCaT, “Non-Toxic”. The inhibition result in data set [18] is “Active”. Also, the Ki at Mushroom tyrosinase [11] is recorded as 142 nM.
On to `Cc1cccc2oc(S)nc12`, for which the Ratio IC50 in data set [12] stood at 16. Besides, the IC50 against Mushroom tyrosinase [1] was 2850 nM; on Mushroom tyrosinase [4], 2150 nM. Also, the Activity is 49% in data set [2], “Non-Toxic” with B16-F10 [3], “Dose-Dependent Effect” in the data set with B16-F10 [5] and “Non-Toxic” with HaCaT. Moreover, the inhibition result in data set [6] is “Dose-Dependent Effect”.

(Values after ChEMBL document CHEMBL5576104, “Design, synthesis, and anti-melanogenic efficacy of 2-mercaptobenzoxazoles with nanomolar tyrosinase activity inhibition” (Bioorg Med Chem, 2024).)
